Molecules are shown by their SMILES.

Data set [1] can be described thus: Hepatocyte (Hep) intrinsic clearance, dog. The note with it: hepatocytes. The format is in vitro ADME.
The target in data set [2] is T1, adenosine A3 receptor (Homo sapiens (Human), UniProt P0DMS8). As to the kind of experiment: A3 cAMP IC50 assay (Table 1). The format is biochemical.
A short description of data set [3]: Hepatocyte (Hep) intrinsic clearance, human. The note with it: hepatocytes. The data set is classed as in vitro ADME.
For data set [4], the target named is T2, adenosine A1 receptor (Homo sapiens (Human), UniProt P30542). In words: A1 cAMP IC50 assay (Table 1). The format is biochemical.
Data set [5] can be described thus: Liver microsome (LM) intrinsic clearance, rat. The format is in vitro ADME.
The target of another data set is adenosine A2B receptor (Homo sapiens (Human), UniProt P29275). As to the kind of experiment: Adenosine receptor activity assay (Table 1), A2B activity. The data set is classed as biochemical. The note with it: for IC50: read-out: Ave A2B cAMP IC50.
The target of another data set is CYP3A4 (Homo sapiens (Human), UniProt P08684). As to the kind of experiment: CYP450 inhibition at 10 μM, CYP3A4. The format is in vitro ADME. The note with it: human, 10 μM, read-out: CYP 450 % INH @ 10 μM.
The nature of data set [6]: Hepatocyte (Hep) intrinsic clearance, rat. The note with it: hepatocytes. The format is in vitro ADME.
The next data set deals with CYP2D6 (Homo sapiens (Human), UniProt P10635). As to the kind of experiment: CYP450 inhibition at 10 μM, CYP2D6. The note with it: read-out: CYP 450 % INH @ 10 μM. The data set is classed as in vitro ADME.
Data set [7] can be described thus: Liver microsome (LM) intrinsic clearance, human. The format is in vitro ADME.
For a further data set, the target named is adenosine A2A receptor (Homo sapiens (Human), UniProt P29274). In words: Adenosine receptor activity assay (Table 1), A2A activity. The data set is classed as biochemical. The note with it: read-out: Ave A2A cAMP IC50.
For data set [8], the target named is T2, adenosine A1 receptor. In words: Adenosine receptor activity assay (Table 1), A1 cAMP. The format is cell-based.
Data set [9] in a line: Liver microsome intrinsic clearance, human. The data set is classed as in vitro ADME.
Data set [10] addresses T1, adenosine A3 receptor. In words: Adenosine receptor activity assay (Table 1), A3 cAMP. The data set is classed as cell-based.
Data set [11] can be described thus: Liver microsome intrinsic clearance, rat. The format is in vitro ADME.
For data set [12], the target named is T2, adenosine A1 receptor. In words: Adenosine receptor activity assay (Table 1), A1 cAMP. The data set is classed as biochemical. On the procedure:
(§1) Table 1. Compounds (e.g., Adenosine Receptor modulators) and activity assay results. The legend is as follows: A=<10 nM; B=10-50 nM; C=50-100 nM; D=100-500; and E=>500 nM. The ratio corresponds to the A2A activity to the A2B activity; or A2A/A2B.

The nature of data set [13]: Liver microsome intrinsic clearance (LM CLint), rat. The data set is classed as in vitro ADME.
Data set [14] is described as follows: Liver microsome intrinsic clearance (LM CLint), human. The data set is classed as in vitro ADME.
For data set [15], the target named is T1, adenosine A3 receptor. In words: Adenosine receptor activity assay (Table 1), A3 cAMP. The format is biochemical. How it is done: as §1
The mark [16] stands for this setting: A2A activity to A2B activity (A2A/A2B).
Setting [17] is: A2A activity to the A2B activity, A2A/A2B.

T2 sequence (P30542 whole entry): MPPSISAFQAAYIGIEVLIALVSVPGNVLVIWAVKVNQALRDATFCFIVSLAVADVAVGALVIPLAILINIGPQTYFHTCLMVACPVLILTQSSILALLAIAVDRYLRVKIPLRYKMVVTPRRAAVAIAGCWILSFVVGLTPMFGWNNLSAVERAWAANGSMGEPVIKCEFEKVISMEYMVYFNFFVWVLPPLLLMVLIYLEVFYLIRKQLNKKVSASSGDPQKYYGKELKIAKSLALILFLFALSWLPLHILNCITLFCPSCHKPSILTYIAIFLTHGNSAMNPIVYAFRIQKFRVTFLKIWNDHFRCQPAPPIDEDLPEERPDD
T1 sequence (P0DMS8 whole entry): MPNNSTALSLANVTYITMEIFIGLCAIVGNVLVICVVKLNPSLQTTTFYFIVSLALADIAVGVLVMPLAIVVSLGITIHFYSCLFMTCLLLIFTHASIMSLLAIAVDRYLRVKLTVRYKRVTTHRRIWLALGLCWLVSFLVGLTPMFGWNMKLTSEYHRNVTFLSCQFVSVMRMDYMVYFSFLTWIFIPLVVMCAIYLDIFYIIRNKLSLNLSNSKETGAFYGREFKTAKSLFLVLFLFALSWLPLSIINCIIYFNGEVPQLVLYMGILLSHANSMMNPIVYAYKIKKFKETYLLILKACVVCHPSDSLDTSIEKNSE
adenosine A2A receptor, sequence (P29274 whole entry): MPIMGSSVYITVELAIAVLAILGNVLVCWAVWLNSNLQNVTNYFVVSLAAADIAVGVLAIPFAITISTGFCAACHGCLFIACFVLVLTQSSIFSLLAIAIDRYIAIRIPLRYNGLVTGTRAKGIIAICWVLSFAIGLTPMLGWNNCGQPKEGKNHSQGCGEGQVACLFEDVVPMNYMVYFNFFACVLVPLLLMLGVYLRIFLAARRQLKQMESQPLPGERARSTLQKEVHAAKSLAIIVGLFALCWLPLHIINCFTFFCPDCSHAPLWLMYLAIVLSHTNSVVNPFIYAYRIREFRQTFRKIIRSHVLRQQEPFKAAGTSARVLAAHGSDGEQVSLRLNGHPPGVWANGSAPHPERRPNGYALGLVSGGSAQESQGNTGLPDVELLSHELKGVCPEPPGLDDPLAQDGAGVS
adenosine A2B receptor, sequence (P29275 whole entry): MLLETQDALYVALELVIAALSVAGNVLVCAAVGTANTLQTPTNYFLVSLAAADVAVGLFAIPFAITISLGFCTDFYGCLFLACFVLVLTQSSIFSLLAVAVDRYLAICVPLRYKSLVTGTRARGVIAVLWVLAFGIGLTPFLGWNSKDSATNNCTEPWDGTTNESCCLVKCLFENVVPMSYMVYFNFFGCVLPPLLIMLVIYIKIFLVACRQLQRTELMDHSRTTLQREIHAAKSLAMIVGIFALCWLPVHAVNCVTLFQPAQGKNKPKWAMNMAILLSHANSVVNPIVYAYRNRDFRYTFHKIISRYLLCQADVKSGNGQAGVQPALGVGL
CYP3A4, sequence (P08684 whole entry): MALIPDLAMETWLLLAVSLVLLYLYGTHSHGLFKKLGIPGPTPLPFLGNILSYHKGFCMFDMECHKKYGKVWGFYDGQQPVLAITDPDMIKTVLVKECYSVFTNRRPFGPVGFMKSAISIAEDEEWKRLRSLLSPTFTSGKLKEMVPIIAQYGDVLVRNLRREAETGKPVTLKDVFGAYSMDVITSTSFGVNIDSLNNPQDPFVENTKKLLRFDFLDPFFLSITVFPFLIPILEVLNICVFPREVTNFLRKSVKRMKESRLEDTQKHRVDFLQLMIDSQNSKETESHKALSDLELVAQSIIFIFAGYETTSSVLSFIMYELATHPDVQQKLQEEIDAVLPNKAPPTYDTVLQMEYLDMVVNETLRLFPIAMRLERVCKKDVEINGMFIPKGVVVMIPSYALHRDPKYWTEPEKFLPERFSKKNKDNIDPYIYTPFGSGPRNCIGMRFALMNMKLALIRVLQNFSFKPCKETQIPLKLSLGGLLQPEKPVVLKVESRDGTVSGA
CYP2D6, sequence (P10635 whole entry): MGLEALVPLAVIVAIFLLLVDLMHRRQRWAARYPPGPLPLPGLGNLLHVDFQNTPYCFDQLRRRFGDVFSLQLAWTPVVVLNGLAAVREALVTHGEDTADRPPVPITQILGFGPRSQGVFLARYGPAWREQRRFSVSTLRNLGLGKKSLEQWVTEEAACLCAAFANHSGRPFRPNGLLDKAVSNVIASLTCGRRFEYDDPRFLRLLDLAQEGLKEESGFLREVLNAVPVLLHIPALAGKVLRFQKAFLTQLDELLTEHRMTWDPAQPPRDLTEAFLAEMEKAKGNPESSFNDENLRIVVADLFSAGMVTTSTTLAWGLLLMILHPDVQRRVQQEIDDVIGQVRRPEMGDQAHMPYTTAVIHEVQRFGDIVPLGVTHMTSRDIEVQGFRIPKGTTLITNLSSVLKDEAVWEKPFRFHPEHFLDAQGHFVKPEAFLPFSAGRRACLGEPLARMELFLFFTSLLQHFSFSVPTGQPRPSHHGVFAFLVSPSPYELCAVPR

For `C[C@H](Nc1nc(C(=O)N2CC[C@@H](O)C2)c2sccc2n1)c1ccccn1` [Example Z59, ((R)-3-Hydroxypyrrolidin-1-yl)(2-(((S)-1-(pyridin-2-yl)ethyl)amino)thieno[3,2-d]pyrimidin-4-yl)methanone], the intrinsic clearance (hepatocyte CLint) in [1] was determined as 4.19 µL/min/1e6 cells; in data set [3], 1.5 µL/min/1e6 cells; in data set [6] it was 8.7 µL/min/1e6 cells. The IC50 at adenosine A3 receptor [2] is over 500 nM; against adenosine A1 receptor [4] it was over 500 nM; on adenosine A2B receptor it was 10 to 50 nM; on adenosine A2A receptor it was 100 to 500 nM. The “LM CLint” value stood at 4.86 μL/min/mg/protein in [5] and 4.87 μL/min/mg/protein in data set [7]. For the same molecule, the Ratio on adenosine A2B receptor (setting [16]) was 12.76. Further, the inhibition at 10 µM was determined as 0% on CYP3A4 and 15% at CYP2D6.

Regarding `CO[C@@H]1CCN(C(=O)c2nc(N[C@@H](C)c3ccccn3)nc3cc(C)sc23)C1` [Example Z312, ((R)-3-Methoxypyrrolidin-1-yl)(6-methyl-2-(((S)-1-(pyridin-2-yl)ethyl)amino)thieno[3,2-d]pyrimidin-4-yl)methanone], the half-maximal inhibitory concentration (IC50) against adenosine A1 receptor [8] is over 500 nM; on adenosine A2B receptor, under 10 nM; at adenosine A2A receptor, 10 to 50 nM; on adenosine A3 receptor [10] it was 50 to 100 nM. For the same molecule, the Ratio at adenosine A2B receptor (setting [16]) is reported as 3.05. The results for the “LM CLint” value in data set [9] and in data set [11] were 10.94 μL/min/mg/protein and 57.04 μL/min/mg/protein, respectively.

In the case of `Cc1cc2nc(N[C@@H](C)c3cccnc3)nc(C(=O)N3CC[C@@H](CO)C3)c2s1` [Example Z335, ((R)-3-(Hydroxymethyl)pyrrolidin-1-yl)(6-methyl-2-(((S)-1-(pyridin-3-yl)ethyl)amino)thieno[3,2-d]pyrimidin-4-yl)methanone], the half-inhibitory concentration (IC50) is over 500 nM against adenosine A1 receptor [8], under 10 nM on adenosine A2B receptor, over 500 nM on adenosine A2A receptor and over 500 nM at adenosine A3 receptor [10]. On adenosine A2B receptor (setting [16]), the Ratio turned out to be 200.00. Besides, the “LM CLint” value is recorded as 10.36 μL/min/mg/protein in data set [9] and 33.31 μL/min/mg/protein in [11].

Regarding `C[C@H](Nc1nc(C(=O)N2CC[C@@H](O)C2)c2sc(C(F)(F)F)cc2n1)c1cccnc1` [Example Z337, ((R)-3-Hydroxypyrrolidin-1-yl)(2-(((S)-1-(pyridin-3-yl)ethyl)amino)-6-(trifluoromethyl)thieno[3,2-d]pyrimidin-4-yl)methanone], the IC50 on adenosine A1 receptor [8] is over 500 nM; on adenosine A2B receptor, 10 to 50 nM; on adenosine A2A receptor it was over 500 nM; against adenosine A3 receptor [10], over 500 nM. On adenosine A2B receptor (setting [16]), the Ratio is 120.82. Moreover, the “LM CLint” value in [9] stood at 20.68 μL/min/mg/protein; in data set [11] it was 13.69 μL/min/mg/protein.

`Cc1cc2nc(N[C@@H](C)c3cncc(F)c3)nc(C(=O)N3CC[C@H](N)C3)c2s1` [Example Z412, ((S)-3-Aminopyrrolidin-1-yl)(2-(((S)-1-(5-fluoropyridin-3-yl)ethyl)amino)-6-methylthieno[3,2-d]pyrimidin-4-yl)methanone]: the half-maximal inhibitory concentration (IC50) was over 500 nM against adenosine A1 receptor [12], 10 to 50 nM at adenosine A2B receptor, over 500 nM on adenosine A3 receptor [15] and over 500 nM at adenosine A2A receptor. Also, the results for the “LM CLint” value in data set [13] and in data set [14] were 26.34 μL/min/mg/protein and 0.15 μL/min/mg/protein, respectively. Further, the Ratio at adenosine A2B receptor (setting [17]) amounted to 166.77.

For `Cc1csc2c(C(=O)N3CCC3)nc(N[C@@H](C)c3cncc(F)c3)nc12` [Example Z415, (S)-Azetidin-1-yl(2-((1-(5-fluoropyridin-3-yl)ethyl)amino)-7-methylthieno[3,2-d]pyrimidin-4-yl)methanone], the concentration for half-maximal inhibition (IC50) on adenosine A1 receptor [12] is 50 to 100 nM; at adenosine A2B receptor, under 10 nM; on adenosine A3 receptor [15], over 500 nM; at adenosine A2A receptor, 10 to 50 nM. The “LM CLint” value in data set [13] was found to be 56.26 μL/min/mg/protein; in data set [14], 82.97 μL/min/mg/protein. The Ratio at adenosine A2B receptor (setting [17]) amounted to 21.01.

Take `CC(=O)Nc1ccc(CCNC(=O)c2nc(N[C@@H](C)c3cncc(F)c3)nc3ccsc23)cc1` [Example Z421, (S)—N-(4-Acetamidophenethyl)-2-((1-(5-fluoropyridin-3-yl)ethyl)amino)thieno[3,2-d]pyrimidine-4-carboxamide]: the “LM CLint” value in [13] is on record as 85.16 μL/min/mg/protein; in data set [14], 228.45 μL/min/mg/protein. For the same molecule, the 50% inhibitory concentration (IC50) at adenosine A2B receptor is 10 to 50 nM.

As to `Cc1cc2nc(N[C@@H](C)c3cncc(F)c3)nc(C(=O)N3CC(N)C3)c2s1` [Example Z430, (S)-(3-Aminoazetidin-1-yl)(2-((1-(5-fluoropyridin-3-yl)ethyl)amino)-6-methylthieno[3,2-d]pyrimidin-4-yl)methanone], the IC50 on adenosine A1 receptor [12] is over 500 nM; at adenosine A2B receptor, under 10 nM; on adenosine A3 receptor [15], over 500 nM; on adenosine A2A receptor it was over 500 nM. In addition, the “LM CLint” value in data set [13] is 4.83 μL/min/mg/protein; in data set [14], 5.77 μL/min/mg/protein. The Ratio on adenosine A2B receptor (setting [17]) was determined as 177.08.

Take `COc1cccc(CNC(=O)c2nc(N[C@@H](C)c3ccccn3)nc3c(C)csc23)n1` [Example Z450, (S)—N-((6-Methoxypyridin-2-yl)methyl)-7-methyl-2-((1-(pyridin-2-yl)ethyl)amino)thieno[3,2-d]pyrimidine-4-carboxamide]: the IC50 against adenosine A1 receptor [12] was over 500 nM; at adenosine A2B receptor, 10 to 50 nM; at adenosine A3 receptor [15] it was 50 to 100 nM; on adenosine A2A receptor, 10 to 50 nM. In addition, the “LM CLint” value amounted to 314.14 μL/min/mg/protein in data set [13] and 82.93 μL/min/mg/protein in data set [14]. Moreover, the Ratio at adenosine A2B receptor (setting [17]) was 0.64.

On to `Cc1cc2nc(N[C@@H](C)c3cncc(F)c3)nc(C(=O)NCC[C@H]3CCNC3)c2s1` [Example Z463, 2-(((S)-1-(5-Fluoropyridin-3-yl)ethyl)amino)-6-methyl-N-(2-((R)-pyrrolidin-3-yl)ethyl)thieno[3,2-d]pyrimidine-4-carboxamide], for which the half-inhibitory concentration (IC50) is over 500 nM against adenosine A1 receptor [12], 10 to 50 nM on adenosine A2B receptor, over 500 nM against adenosine A3 receptor [15] and over 500 nM on adenosine A2A receptor. The “LM CLint” value is reported as 48.47 μL/min/mg/protein in data set [13] and 4.85 μL/min/mg/protein in data set [14]. Further, the Ratio at adenosine A2B receptor (setting [17]) was found to be 159.87.

In the case of `COc1ccc([C@@H](C)Nc2nc(C(=O)NCc3ccc(OC)nc3)c3sccc3n2)cc1` [Example Z465, (R)-2-((1-(4-Methoxyphenyl)ethyl)amino)-N-((6-methoxypyridin-3-yl)methyl)thieno[3,2-d]pyrimidine-4-carboxamide], the 50% inhibitory concentration (IC50) at adenosine A1 receptor [12] is over 500 nM; on adenosine A2B receptor it was over 500 nM; on adenosine A3 receptor [15] it was over 500 nM; on adenosine A2A receptor, 10 to 50 nM. Besides, the figures for the “LM CLint” value in data set [13] and in data set [14] were 75.91 μL/min/mg/protein and 35.20 μL/min/mg/protein, respectively. Also, on adenosine A2B receptor (setting [17]), the Ratio was 0.22.

`C[C@H](Nc1nc(C(=O)N2CC(NC(=O)C3CC3)C2)c2sccc2n1)c1cncc(F)c1` [Example Z517, (S)—N-(1-(2-((1-(5-Fluoropyridin-3-yl)ethyl)amino)thieno[3,2-d]pyrimidine-4-carbonyl)azetidin-3-yl)cyclopropanecarboxamide]: the 50% inhibitory concentration (IC50) against adenosine A1 receptor [12] was over 500 nM; on adenosine A2B receptor it was under 10 nM; on adenosine A3 receptor [15], over 500 nM; at adenosine A2A receptor, 10 to 50 nM. Besides, the “LM CLint” value is reported as 16.99 μL/min/mg/protein in data set [13] and 6.17 μL/min/mg/protein in data set [14]. On adenosine A2B receptor (setting [17]), the Ratio worked out at 4.68.

The values are drawn from patent publication US11254686B1 (Corvus Pharmaceuticals, Inc., priority 2017, dated 2022).
